EP4101830A1, “NOVEL DIARYLIODONIUM SALT MIXTURES AS LOW MOLECULAR WEIGHT PHOTOINITIATORS WITH MINIMIZED CRYSTALLIZATION BEHAVIOR AND ELEVATED SOLUBILITY” (FEW Chemicals GmbH, priority 2021, dated 2022)
Where a name gives a salt, the structure may show the parent alone.

Key:
[1] = Solubility of photoinitiator in sol-gel coating and layer (visual); format: physicochemical; conditions: sol-gel coating on PET foil; result in words
Description: A sol-gel coating solution consisting of 15% TEOS, 5% epoxy-modified silanes, 75% organic solvents, and 5% water was prepared according to protocols known (R.B. Figueira et al.; Journal of Coatings Technology and Research 2015, 12, 1-35). To 10 g of this coating solution were added 0.05 g of photoinitiator test compounds (see Table 5/example 7), followed by 1 hour of stirring at room temperature. This solution was applied to a PET foil at a wet thickness of 30 µm by a doctor blade device. This material was illuminated at 254 nm for 2 min or for 5 min (UV-Crosslinker device; UVP). The abrasion resistance (500 cycles) was determined with a standard method (taber-abraser) and the decrease in gloss was measured. […] TABLE 5 / Example 7

[2] = Solubility in nonpolar solvents (MEK/dowanol 1:1); format: physicochemical; conditions: measured in MEK/dowanol 1:1
Description: Thus, efficacy of photoinitiation, when given by radicals per mass, is higher for low molecular weight mixtures of the embodiment. Furthermore, the solubility in nonpolar solvents (such as ketones, ethers, esters) is improved.

Row | SMILES | solubility in the coating and layer [1] | solubility [2] [mg/mL]
1 | CC(C)(C)c1ccc([I+]c2ccc(C(C)(C)C)cc2)cc1.FC(F)(F)C([O][Al-]([O]C(C(F)(F)F)(C(F)(F)F)C(F)(F)F)([O]C(C(F)(F)F)(C(F)(F)F)C(F)(F)F)[O]C(C(F)(F)F)(C(F)(F)F)C(F)(F)F)(C(F)(F)F)C(F)(F)F [bis-(4-tert.-butyl-phenyl)-iodonium tetrakis(perfluoro-tert.-butoxy)aluminate] | visible precipitates and spots in the coat | –
2 | CC(C)(C)c1ccc([I+]c2ccc(C(C)(C)C)cc2)cc1 [comparative iodonium salt 1, bis[4-(1,1-dimethylethyl)phenyl]-iodonium tetraphenylborate] | – | 149
